In US11945824B2, “Heterocyclic compounds as anti-viral agents” (priority 2020, dated 2024):
Like-named read-outs stand apart in the source and are kept apart here.

How the values were obtained:
[1] = test system: rHMPV-GFP (recombinant HMPV CAN97-83, MPV-GFP1); test: HMPV antiviral assay (eGFP fluorescence in Vero E6 cells); type: cell-based; conditions: human metapneumovirus, Vero C1008, 120 h, read-out: rHMPV-GFP EC50
Procedure: Method for HMPV Antiviral Assay
HMPV antiviral activity was evaluated using a recombinant version of HMPV CAN97-83 engineered to contain the coding sequence for enhanced green fluorescence protein (eGFP) in the 3′ end of the virus genome (MPV-GFP1, ViraTree). Vero E6 cells (ATCC #CCL-7) were seeded at a density of 12,000 cells/100 μL/well into 96-well cell plates (VENDOR) one day prior to the assay. On the day of screening, the cell culture medium was aspirated from the wells and cells were washed twice with serum-free Eagle's Modified Essential Medium (EMEM, ATCC #) containing 1% penicillin-streptomycin (Invitrogen) (SF-EMEM). Cell washes were performed by dispensing 100 μL SF-EMEM per well and immediately aspirating the wash medium from the well. Following the second wash step, serum-free OptiMEM (Invitrogen, Cat No.) (SF-OptiMEM) containing 0.5 μg/mL TPCK-Trypsin (VENDOR) and 1% penicillin-streptomycin was added to the cells at 50 μL/well. Compounds were added into the 96-well plates using a JANUS automated liquid handling system (VENDOR). Compounds were initially diluted 1:50 into an intermediate 96-well plate containing SF-OptiMEM prior to transfer to the assay plate (25 μL/well). Each of the test compounds were tested in duplicate wells at final concentrations starting from 8 μM or 2 μM using ½ stepwise dilutions for a total of 8 points. Virus infection was performed by preparing a working stock of MPV-GFP1 at a multiplicity of infection (MOI) equal to 0.05/25 μL and aliquoting 25 μL of virus inoculum to the compound and positive control wells. SF-OptiMEM was added (25 μL/well) to the appropriate wells to serve as a virus-free negative control for the assay. The final DMSO concentration of all wells is 0.5%. Plates were incubated at 32° C., 5% CO2 for 5 days. After 5 days incubation, eGFP fluorescence intensity was measured at […] using a Spectramax i3X plate reader (VENDOR).
Percent viral inhibition was calculated using the following equation: y=[[…](XQ/XP)]×100 Where XQ is the fluorescence intensity measured in a well containing recombinant MPV-GFP1-infected, compound-treated cells and XP is the average fluorescence intensity measured in the wells containing untreated cells infected with recombinant virus. EC50 values were then calculated by non-linear regression using a four-parameter curve logistic equation. The curve fit model employed was XLFit Dose Response One Site Model 200: y=(A+(B/(1+((x/C)^D)))) Where A is the minimum y value, B is the maximum y value, C is the log EC50 value, and D is the slope factor. The EC50 for each compound is listed in Table 2 and EC50 ranges are as follows: A<0.2 μM; B≥0.2 μM.

[2] = test system: Human RSV-A (“Long” strain); test: RSV-A assay (CPE, ATPlite readout in Hep-2 cells); type: cell-based; conditions: human respiratory syncytial virus, read-out: Human RSV-A (“Long” strain) EC50
Text: Hep-2 cells, (originally derived from tumors grown in irradiated-cortisonised weanling rats that had been injected with epidermoid carcinoma tissue from a person's larynx, but later found to be indistinguishable from HeLa cells by PCR DNA analysis), were used for the culturing of genotype A, “Long” strain RSV. Flasks were inoculated with RSV and viral stocks were collected once cytopathic effect (CPE) was greater than 90%. Viral stocks in 25% sucrose media were snap frozen using liquid nitrogen to increase viral stability. Viral stock titers were quantified by tissue culture infectious dose 50% (TCID50) using 8,000 cells per well and 3-fold viral dilutions across a 96-well plate, cultured for 4 days. Viral stock titers were also quantified by a plaque forming unit assay, as described elsewhere.
Following extensive parameter testing, the final assay is run as follows: Hep-2 cells are seeded into the inner 60 wells of a 96-well plate at 8,000 cells per well in a volume of 50 μL using Growth Media (DMEM without phenol red, 1% L-Glut, 1% Penn/Strep, 1% nonessential amino acids, 10% heat-inactivated FBS). 2-fold serial dilutions of control and test compounds are added to the wells in duplicate in a total volume of 25 μL. Viral stock is then added to the wells at a multiplicity of infection (MOI) of 0.1 in a volume of 25 μL, bringing the total volume of each well to 100 μL. The MOI is calculated using the PFU/mL, or TCID50 if unavailable. Each 96-well plate has a control column of 6 wells with cells and virus but no compound (negative control, max CPE), a column with cells but no compound or virus (positive control, minimum CPE), and a column with no cells or virus or compound (background plate/reagent control). The control wells with cells but no virus are given an additional 25 μL of growth media containing an equal quantity of sucrose as those wells receiving the viral stock in order to keep consistent in media and volume conditions. The outer wells of the plate are filled with 125 μL of moat media (DMEM, 1% Penn/Strep) to act as a thermal and evaporative moat around the test wells. Following a 5-day incubation period, the plates are read using ATPlite (50 uL added per well), which quantifies the amount of ATP (a measure of cell health) present in each well. Assay plates are read using the Envision luminometer. […] EC50 ranges are as follows: A<0.2 μM; B≥0.2 μM.

[3] = 120 h, Hep-2 cells, MOI 0.1, 5-day incubation, ATPlite

Structure (SMILES) | EC50 [1] [nM] | EC50 [2, 3] [nM] | EC50 ([2]; HEp-2, 120 h) [nM]
COc1cc(C(=O)NC[C@](O)(c2cc3c(c(-c4ccc(F)cc4)n2)OC[C@@]3(n2ccnn2)C(F)(F)F)C(F)(F)F)ccc1OC1CC1 [Example 1, 4-cyclopropoxy-3-methoxy-N-((S)-3,3,3-trifluoro-2-((R)-7-(4-fluorophenyl)-3-(1H-1,2,3-triazol-1-yl)-3-(trifluoromethyl)-2,3-dihydrofuro[2,3-c]pyridin-5-yl)-2-hydroxypropyl)benzamide] | > 200 | > 200 | –
COc1cc(C(=O)NC[C@](C)(O)c2cc3c(c(-c4ccc(F)cc4)n2)OC[C@@]3(n2cnnc2)C(F)(F)F)ccc1OC1CC1 [Example 2, 4-cyclopropoxy-N-((S)-2-((R)-7-(4-fluorophenyl)-3-(4H-1,2,4-triazol-4-yl)-3-(trifluoromethyl)-2,3-dihydrofuro[2,3-c]pyridin-5-yl)-2-hydroxypropyl)-3-methoxybenzamide] | > 200 | < 200 | –
COc1cc(C(=O)NC[C@](O)(c2cc3c(c(-c4ccc(F)cc4)n2)OC[C@@]3(n2cnnc2)C(F)(F)F)C2CC2)ccc1OC1CC1 [Example 3, 4-cyclopropoxy-N-((S)-2-cyclopropyl-2-((R)-7-(4-fluorophenyl)-3-(4H-1,2,4-triazol-4-yl)-3-(trifluoromethyl)-2,3-dihydrofuro[2,3-c]pyridin-5-yl)-2-hydroxyethyl)-3-methoxybenzamide] | > 200 | – | < 200
COc1cc(C(=O)NC[C@](O)(c2cc3c(c(-c4ccc(F)cc4)n2)OC[C@@]3(n2ccnc2)C(F)(F)F)C2CC2)ccc1OC1CC1 [Example 4, 4-cyclopropoxy-N-((S)-2-cyclopropyl-2-((R)-7-(4-fluorophenyl)-3-(1H-imidazol-1-yl)-3-(trifluoromethyl)-2,3-dihydrofuro[2,3-c]pyridin-5-yl)-2-hydroxyethyl)-3-methoxybenzamide] | – | – | < 200
COc1cc(C(=O)NC[C@](O)(c2cc3c(c(-c4ccc(F)cc4)n2)OC[C@]3(C)n2cnnc2)C(F)(F)F)ccc1OC1CC1 [Example 6, 4-cyclopropoxy-3-methoxy-N-((S)-3,3,3-trifluoro-2-((R)-7-(4-fluorophenyl)-3-methyl-3-(4H-1,2,4-triazol-4-yl)-2,3-dihydrofuro[2,3-c]pyridin-5-yl)-2-hydroxypropyl)benzamide] | > 200 | < 200 | –
COc1cc(C(=O)NC[C@](O)(c2cc3c(c(-c4ccc(F)cc4)n2)OC[C@]3(C)n2cnnc2)C(F)(F)F)cc2cccnc12 [Example 7, 8-methoxy-N-((S)-3,3,3-trifluoro-2-((R)-7-(4-fluorophenyl)-3-methyl-3-(4H-1,2,4-triazol-4-yl)-2,3-dihydrofuro[2,3-c]pyridin-5-yl)-2-hydroxypropyl)quinoline-6-carboxamide] | – | > 200 | –
COc1cc(C(=O)NC[C@](O)(c2cc3c(c(-c4ccc(F)cc4)n2)OC[C@]3(C)n2ccnc2)C(F)(F)F)cc2cccnc12 [Example 8, 8-methoxy-N-((S)-3,3,3-trifluoro-2-((R)-7-(4-fluorophenyl)-3-(1H-imidazol-1-yl)-3-methyl-2,3-dihydrofuro[2,3-c]pyridin-5-yl)-2-hydroxypropyl)quinoline-6-carboxamide] | – | < 200 | –
COc1cc(C(=O)NC[C@](O)(c2cc3c(c(-c4ccc(F)cc4)n2)OC[C@]3(C)n2ccnc2)C(F)(F)F)ccc1OC1CC1 [Example 9, 4-cyclopropoxy-3-methoxy-N-((S)-3,3,3-trifluoro-2-((R)-7-(4-fluorophenyl)-3-(1H-imidazol-1-yl)-3-methyl-2,3-dihydrofuro[2,3-c]pyridin-5-yl)-2-hydroxypropyl)benzamide] | > 200 | < 200 | –
COc1cc(C(=O)NC[C@](O)(c2cc3c(c(-c4ccc(F)cc4)n2)OC[C@]3(C)n2cccc2)C(F)(F)F)cc2cccnc12 [Example 10, 8-methoxy-N-((S)-3,3,3-trifluoro-2-((R)-7-(4-fluorophenyl)-3-methyl-3-(1H-pyrrol-1-yl)-2,3-dihydrofuro[2,3-c]pyridin-5-yl)-2-hydroxypropyl)quinoline-6-carboxamide] | – | > 200 | –
COc1cc(C(=O)NC[C@](O)(c2cc3c(c(-c4ccc(F)cc4)n2)OC[C@]3(C)n2ccnn2)C(F)(F)F)ccc1OC1CC1 [Example 11, 4-cyclopropoxy-3-methoxy-N-((S)-3,3,3-trifluoro-2-((R)-7-(4-fluorophenyl)-3-methyl-3-(1H-1,2,3-triazol-1-yl)-2,3-dihydrofuro[2,3-c]pyridin-5-yl)-2-hydroxypropyl)benzamide] | > 200 | < 200 | –
COc1cc(C(=O)NC[C@](O)(c2cc3c(c(-c4ccc(F)cc4)n2)OC[C@]3(C)n2cc(C3CC3)nn2)C(F)(F)F)ccc1OC1CC1 [Example 12, 4-cyclopropoxy-N-((S)-2-((R)-3-(4-cyclopropyl-1H-1,2,3-triazol-1-yl)-7-(4-fluorophenyl)-3-methyl-2,3-dihydrofuro[2,3-c]pyridin-5-yl)-3,3,3-trifluoro-2-hydroxypropyl)-3-methoxybenzamide] | – | < 200 | –
COc1cc(C(=O)NC[C@](C)(O)c2cc3c(c(-c4ccc(F)cc4)n2)OC[C@]3(C)n2cnnc2)ccc1OC1CC1 [Example 13, 4-cyclopropoxy-N-((S)-2-((R)-7-(4-fluorophenyl)-3-methyl-3-(4H-1,2,4-triazol-4-yl)-2,3-dihydrofuro[2,3-c]pyridin-5-yl)-2-hydroxypropyl)-3-methoxybenzamide] | > 200 | < 200 | –
COc1cc(C(=O)NC[C@](C)(O)c2cc3c(c(-c4ccc(F)cc4)n2)OC[C@]3(C)n2cnnc2)cc2cccnc12 [Example 14, N-((S)-2-((R)-7-(4-fluorophenyl)-3-methyl-3-(4H-1,2,4-triazol-4-yl)-2,3-dihydrofuro[2,3-c]pyridin-5-yl)-2-hydroxypropyl)-8-methoxyquinoline-6-carboxamide] | – | > 200 | –
COc1cc(C(=O)NC[C@](O)(c2cc3c(c(-c4ccc(F)cc4)n2)OC[C@]3(C)n2cnnc2)C2CC2)ccc1OC1CC1 [Example 15, 4-cyclopropoxy-N-((S)-2-cyclopropyl-2-((R)-7-(4-fluorophenyl)-3-methyl-3-(4H-1,2,4-triazol-4-yl)-2,3-dihydrofuro[2,3-c]pyridin-5-yl)-2-hydroxyethyl)-3-methoxybenzamide] | > 200 | < 200 | –
COc1cc(C(=O)NC[C@](O)(c2cc3c(c(-c4ccc(F)cc4)n2)OC[C@]3(C)c2nnn[nH]2)C(F)(F)F)cc2cccnc12 [Example 19, 8-methoxy-N-((S)-3,3,3-trifluoro-2-((S)-7-(4-fluorophenyl)-3-methyl-3-(1H-tetrazol-5-yl)-2,3-dihydrofuro[2,3-c]pyridin-5-yl)-2-hydroxypropyl)quinoline-6-carboxamide] | – | > 200 | –
